Measurements as given in patent EP0851766B1, “METHOD FOR ANALYZING THE IMMUNOS[…] OF ION CHANNEL BLOCKERS USING THE MINI-PIG” (MERCK & CO., INC., priority 1995, dated 1997).
Like-named read-outs stand apart in the source and are kept apart here.

What was measured:
[1] = system: mixed lymphocyte reaction; assay: Mixed lymphocyte reaction (pig); assay type: cell-based
From the text: Mini-swine was recently selected to validate the concept that blocking the voltage activated K+ channels (Kv1.3) is a target for immunomodulation.

[2] = system: mixed lymphocyte reaction; conditions: guinea pig; cited from earlier work
[3] = system: mixed lymphocyte reaction; conditions: rat; cited from earlier work
[4] = system: mixed lymphocyte reaction; conditions: mouse; cited from earlier work
[5] = 25 µg infused over 2.5 h
[6] = Blood pressure and heart rate during infusion; assay type: in vivo, Yucatan mini-pig; conditions: during infusion of 25 µg over 2.5 h
Method: A Yucatan mini-pig received 25 µg of margatoxin in 30 ml of vehicle (5% autologous serum in 1:1 saline to PBS solution) over 2.5 h. […] Margatoxin was undetectable in the plasma in 24 h. Plasma level of MgTX was determined in a competition binding assay, by its inhibition of ^125I-labeled MgTX binding to Kv1.3 channels present in isolated plasma membranes. […] Similar pharmokinetic study was performed six times, with good correlations between high plasma levels of margatoxin and the lower response to PMA/ION. Yucatan mini-pigs receiving vehicle had no significant fluctuation of responses to PMA/ION. Therefore, this ex vivo test provides an assessment of the in vivo biological effect of margatoxin and can also be used to study the immunosuppressant effects of other ion channel blockers.

[7] = system: mixed lymphocyte reaction; conditions: rabbit; cited from earlier work
[8] = biological target: T1, Kv1.3 channels of the pig T cells (Sus scrofa, UniProt A0A5G2QN06); conditions: electrophysiological analyses, unpublished communication from Reid Leonard; cited from earlier work
T1 construct: endogenous in cells; host or cells: pig T cells
T1 sequence (A0A5G2QN06 1-588): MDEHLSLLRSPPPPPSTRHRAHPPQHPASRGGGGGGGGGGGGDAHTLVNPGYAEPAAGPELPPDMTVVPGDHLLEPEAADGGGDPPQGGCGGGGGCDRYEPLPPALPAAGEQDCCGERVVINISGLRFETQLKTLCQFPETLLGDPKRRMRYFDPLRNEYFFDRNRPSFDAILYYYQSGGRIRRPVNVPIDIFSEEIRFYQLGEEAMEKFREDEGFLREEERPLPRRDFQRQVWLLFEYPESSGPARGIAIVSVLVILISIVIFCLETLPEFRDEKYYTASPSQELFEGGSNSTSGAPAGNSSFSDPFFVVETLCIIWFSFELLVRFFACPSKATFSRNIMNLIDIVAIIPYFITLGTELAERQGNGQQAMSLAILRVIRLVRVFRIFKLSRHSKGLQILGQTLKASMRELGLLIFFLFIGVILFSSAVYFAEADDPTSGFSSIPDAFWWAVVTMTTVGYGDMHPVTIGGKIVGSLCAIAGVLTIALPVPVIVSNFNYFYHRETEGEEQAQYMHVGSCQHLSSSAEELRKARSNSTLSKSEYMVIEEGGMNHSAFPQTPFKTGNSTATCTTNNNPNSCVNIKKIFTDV

pig mononuclear cells = assay: In vitro PMA/ionomycin induced proliferation of mononuclear cells ([3H]thymidine incorporation); assay type: cell-based
mononuclear cells = assay: Ex vivo PMA/ionomycin-induced proliferation of mononuclear cells after in vivo infusion; set-up: species or system Yucatan mini-pig; conditions: 25 µg in 30 ml of vehicle infused over 2.5 h

Substance: Margatoxin
- inhibition of the mixed lymphocyte reaction [1]: inhibit
- inhibition of the mixed lymphocyte reaction [2]: not inhibited
- inhibition of the mixed lymphocyte reaction [3]: not inhibited
- inhibition of the mixed lymphocyte reaction [4]: not inhibited
- Plasma level ([5]; in 24 h): undetectable
- half-life ([5]; plasma): about 2 h
- Cmax ([5]; read-out: Plasma level, peak, at the end of infusion): 0.6 nM
- concentration ([5]; read-out: Plasma level, at 4.5 h post-infusion): 0.1 nM
- rise in blood pressure [6]: no significant rise
- rise in heart rate [6]: no significant rise
- inhibition of the mixed lymphocyte reaction [7]: not inhibited
- block of the Kv1.3 channels [8]: block
- PMA/ionomycin (ION) induced proliferation (pig mononuclear cells; pig mononuclear cells, in vitro): equally inhibited
- suppression of the proliferative response to PMA/ION (pig mononuclear cells; whole blood spiked with Margatoxin): significant suppression
- Unresponsiveness to PMA/ION, duration sustained post-infusion (mononuclear cells): 4.5 h
- Unresponsiveness to PMA/ION, time of maximum (mononuclear cells): maximal at the end of infusion
